From patent publication US9963462B2 (priority 2015, dated 2018)
Where two headings read alike, the source gives them in different places.

Columns and labels:
[1] = molecular target: SNAP-hSPR (sepiapterin reductase, SPR) (Homo sapiens, UniProt P35270); assay: biochemical; assay type: binding; conditions: terbium labelled SNAP-hSPR / SSZ labelled SNAP-EGFP; read-out: hTR-FRET IC50
[2] = test system: BH4 levels in SK-N-BE (2) cells; assay: SKN-N-BE (2) cellular assay, BH4 levels by LC-MS; assay type: cell-based
[3] = Homo sapiens, SKNBE2, read-out: SK-N-BE(2) IC50, SK-N-BE (2) cells, BH4 levels by LC-MS

SNAP-hSPR (sepiapterin reductase, SPR), sequence (P35270 whole entry): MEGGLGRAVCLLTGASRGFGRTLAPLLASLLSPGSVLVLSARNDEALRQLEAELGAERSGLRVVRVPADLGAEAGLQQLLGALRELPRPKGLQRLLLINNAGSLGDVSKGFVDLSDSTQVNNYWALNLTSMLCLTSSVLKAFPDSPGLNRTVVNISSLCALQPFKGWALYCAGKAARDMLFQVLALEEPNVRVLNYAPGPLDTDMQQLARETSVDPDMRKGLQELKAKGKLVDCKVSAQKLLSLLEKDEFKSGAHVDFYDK

SMILES	IC50 [1]	IC50 [2, 3]	IC50 ([2]; read-out: SK-N-BE(2) IC50, SK-N-BE (2) cells, BH4 levels by LC-MS)
Cc1cc(=O)[nH]c(-n2ncc(C(=O)N3CCc4ccc(C(F)(F)F)cc4C3)c2C)n1 [Q-0298]	20 nM	1500 nM	–
Cc1c(C(=O)N2CC(CN)C2)cnn1-c1nc2c(c(=O)[nH]1)CCC2 [Q-0589]	60 nM	1700 nM	–
COC1CCCN(C(=O)c2cnn(-c3nc4c(c(=O)[nH]3)CCC4)c2C)C1 (stereo not drawn) [Q-0482]	8 nM	1000 nM	–
Cc1c(C(=O)N2C[C@@H]3CN(C(=O)OC(C)(C)C)[C@@H]3C2)cnn1-c1nn2cccc2c(=O)[nH]1 [Q-0773]	6 nM	1700 nM	–
Cc1c(C(=O)N2CCC(C3CC3)CC2)cnn1-c1nc2sccc2c(=O)[nH]1 [Q-0700]	2 nM	100 nM	–
Cc1c(C(=O)N2CCC(c3nc4ccccc4s3)CC2)cnn1-c1nn2c(F)ccc2c(=O)[nH]1 [Q-0607]	5 nM	87 nM	–
Cc1cc(=O)[nH]c(-n2ncc(C(=O)NC34CC5CC(CC(C5)C3)C4)c2C)n1 [Q-0305]	30 nM	4600 nM	–
Cc1c(C(=O)N2CCC(C(C)(C)C#N)CC2)cnn1-c1nc2c(c(=O)[nH]1)CCC2 [Q-0469]	4 nM	37 nM	–
Cc1c(C(=O)N2CCCCC2)cnn1-c1nn2cccc2c(=O)[nH]1 [Q-0634]	3 nM	700 nM	–
Cc1c(C(=O)N2CCC(Oc3ccccc3)C2)cnn1-c1nc2c(c(=O)[nH]1)CCC2 (stereo not drawn) [Q-0477]	5 nM	91 nM	–
O=C(c1cnn(-c2nn3cccc3c(=O)[nH]2)c1)N1CCC(c2nc3ccccc3s2)CC1 [Q-0537]	40 nM	200 nM	–
Cc1c(C(=O)N2CCN3CCC[C@@H]3C2)cnn1-c1nc2ccsc2c(=O)[nH]1 [Q-0556]	7 nM	600 nM	–
Cc1c(C(=O)N2CC3CC(F)(F)CC3C2)cnn1-c1nn2cccc2c(=O)[nH]1 (stereo not drawn) [Q-0796]	1 nM	200 nM	–
Cc1c(C(=O)N(C)CCc2c[nH]c3ccccc23)cnn1-c1nc2c(c(=O)[nH]1)CCC2 [Q-0497]	9 nM	400 nM	–
Cc1c(CN2CCCCC2=O)cnn1-c1nc2c(c(=O)[nH]1)CCC2 [Q-0494, 1-[(5-methyl-1-{4-oxo-3H,4H,5H,6H,7H-cyclopenta[d]pyrimidin-2-yl}-1H-pyrazol-4-yL)methyl]piperidin-2-one]	6 nM	300 nM	–
Cc1c(C(=O)N2CCc3ccccc3C2)cnn1-c1nc2ccccc2c(=O)[nH]1 [Q-0323]	300 nM	35000 nM	–
O=C(c1cnn(-c2nn3c(F)ccc3c(=O)[nH]2)c1)N1CCC(CC(F)(F)F)CC1 [Q-0758]	2 nM	90 nM	–
O=C(c1cnn(-c2nc3c(c(=O)[nH]2)CCC3)c1C1CC1)N1CCC(C(F)(F)F)CC1 [Q-0463]	4 nM	300 nM	–
Cc1c(C(=O)N2CCC(C)(C)C2)cnn1-c1nc2ccsc2c(=O)[nH]1 [Q-0380]	7 nM	2700 nM	–
O=C(c1ccnc(-c2nc3ccsc3c(=O)[nH]2)c1)N1CCC(C(F)(F)F)CC1 [Q-0515]	40 nM	5300 nM	–

SMILES	IC50 [1]	IC50 [2, 3]	IC50 ([2]; read-out: SK-N-BE(2) IC50, SK-N-BE (2) cells, BH4 levels by LC-MS)
Cc1cc(=O)[nH]c(-n2ncc(C(=O)N3CCc4ccccc4C3C)c2C)n1 (stereo not drawn) [Q-0313]	6 nM	1500 nM	–
Cc1c(C(=O)N2CCN3CCC[C@H]3C2)cnn1-c1nn2cccc2c(=O)[nH]1 [Q-0856]	4 nM	1100 nM	–
Cc1cc(=O)[nH]c(-n2ncc(C(=O)N3CCC(C)(C)C3)c2C)n1 [Q-0341]	5 nM	1800 nM	–
CC(C)(C#N)C1CCN(C(=O)c2cnn(-c3nn4cccc4c(=O)[nH]3)c2)CC1 [Q-0720]	1 nM	300 nM	–
Cc1nc(-n2ncc(C(=O)N3c4ccccc4CC3C)c2C)[nH]c(=O)c1C (stereo not drawn) [Q-0404]	40 nM	4300 nM	–
O=C(c1cnn(-c2nn3cccc3c(=O)[nH]2)c1)N1CCC(c2c[nH]c3ccccc23)CC1 [Q-0536]	7 nM	59 nM	–
O=C(c1cnn(-c2nc3c(c(=O)[nH]2)CCC3)c1)N1CCN(c2ccc(F)cc2F)CC1 [Q-0735]	3 nM	95 nM	–
Cc1cc(=O)[nH]c(-n2nc(C)c(CCC(=O)N3CCCC3)c2C)n1 [Q-0281]	60 nM	9000 nM	–
Cc1c(C(=O)N2CCC(Oc3ccccc3)CC2)cnn1-c1nc2c(c(=O)[nH]1)CCC2 [Q-0462]	5 nM	94 nM	–
Cc1cc(=O)[nH]c(-n2ncc(C(=O)N(C)C3CCc4ccccc43)c2C)n1 (stereo not drawn) [Q-0374]	9 nM	1200 nM	–
Cc1c(C(=O)N2CCC(C#N)(c3ccccc3)CC2)cnn1-c1nn2cccc2c(=O)[nH]1 [Q-0599]	2 nM	12 nM	–
Cc1cc(=O)[nH]c(-n2ncc(C(=O)N3CCc4[nH]ncc4C3)c2C)n1 [Q-0345]	10 nM	78000 nM	–
Cc1c(C(=O)N2CCC(F)(F)CC2)cnn1-c1nc2c(c(=O)[nH]1)CCC2 [Q-0424]	4 nM	1100 nM	–
Cc1cc(=O)[nH]c(-n2cc(C(=O)N3CCC(C(F)(F)F)CC3)c(C)n2)n1 [Q-0432, 6-methyl-2-{3-methyl-4-[4-(trifluoromethyl)piperidine-1-carbonyl]-1H-pyrazol-1-yl}-3,4-dihydropyrimidin-4-one]	40 nM	6500 nM	–
Cc1c(C(=O)N2CCC(C(F)(F)F)CC2)cnn1-c1cc(C(F)(F)F)cc(=O)[nH]1 [Q-0466, 6-{5-methyl-4-[4-(trifluoromethyl)piperidine-1-carbonyl]-1H-pyrazol-1-yl}-4-(trifluoromethyl)-1,2-dihydropyridin-2-one]	1 nM	59 nM	–
Cc1c(C(=O)N2CCCC2(C)C)cnn1-c1nc2ccsc2c(=O)[nH]1 [Q-0397]	20 nM	2300 nM	–
Cc1cc(=O)[nH]c(-n2ncc(C(=O)N3C4CCC3CC4)c2C)n1 [Q-0329]	10 nM	3500 nM	–
O=C(c1cnn(-c2nn3cccc3c(=O)[nH]2)c1)N1CCC(CC(F)(F)F)CC1 [Q-0713]	1 nM	200 nM	–
Cc1c(C(=O)N2CCC3(CC2)CC3c2nnc(-c3ccccc3)o2)cnn1-c1nn2cccc2c(=O)[nH]1 (stereo not drawn) [Q-0696]	4 nM	400 nM	–
Cc1c(C(=O)O)cnn1-c1nc2c(c(=O)[nH]1)CCC2 [Q-0481, 5-methyl-1-{4-oxo-3H,4H,5H,6H,7H-cyclopenta[d]pyrimidin-2-yl}-1H-pyrazole-4-carboxylic acid]	30 nM	95000 nM	–

SMILES	IC50 [1]	IC50 [2, 3]	IC50 ([2]; read-out: SK-N-BE(2) IC50, SK-N-BE (2) cells, BH4 levels by LC-MS)
Cc1c(C(=O)N2CC3CC(C2)C3(F)F)cnn1-c1nn2cccc2c(=O)[nH]1 [Q-0799]	1 nM	300 nM	–
Cc1cc(=O)[nH]c(-n2ncc(C(=O)N3CCc4ccccc43)c2C)n1 [Q-0001]	20 nM	2700 nM	–
Cc1c(C(=O)N2CCC3OCCCC3C2)cnn1-c1nc2c(c(=O)[nH]1)CCC2 (stereo not drawn) [Q-0576]	6 nM	100 nM	–
Cc1cc(=O)[nH]c(-n2ncc(C(=O)N3CCS(=O)(=O)CC3)c2C)n1 [Q-0304]	40 nM	67000 nM	–
Cc1cc(=O)[nH]c(-n2ncc(C(=O)N3c4ccccc4CC3C)c2C)n1 (stereo not drawn) [Q-0303]	7 nM	900 nM	–
Cc1c(C(=O)N2CCC(O)(c3ccccc3)CC2)cnn1-c1nc2c(c(=O)[nH]1)CCC2 [Q-0446]	7 nM	96 nM	–
Cc1c(C(=O)N2CCN3CCC[C@@H]3C2)cnn1-c1nc2c(c(=O)[nH]1)CCC2 [Q-0575]	3 nM	200 nM	–
Cc1c(C(=O)N2c3ccccc3C[C@H]2C)cnn1-c1nc2ccsc2c(=O)[nH]1 (single isomer, unassigned) [Q-0414]	6 nM	300 nM	–
O=C(c1ccn(-c2nc3c(c(=O)[nH]2)CCC3)c1)N1CCC(C(F)(F)F)CC1 [Q-0732]	1 nM	100 nM	–
Cc1c(C(=O)N2CCN(C(=O)C34CC(C(=O)O)(C3)C4)CC2)cnn1-c1nc2c(c(=O)[nH]1)CCC2 [Q-0627, 3-(4-(5-methyl-1-(4-oxo-4,5,6,7-tetrahydro-3H-cyclopenta[d]pyrimidin-2-yl)-1H-pyrazole-4-carbonyl)piperazine-1-carbonyl)bicyclo[1.1.1]pentane-1-carboxylic acid]	9 nM	10000 nM	–
Cc1c(C(=O)N2CCC(C(O)(C(F)(F)F)C(F)(F)F)CC2)cnn1-c1nc2c(c(=O)[nH]1)CCC2 [Q-0598]	4 nM	–	10 nM
O=C(c1cnn(-c2nc3c(c(=O)[nH]2)CCC3)c1)N1CCC(c2nc3cc(F)ccc3s2)CC1 [Q-0707]	5 nM	300 nM	–
Cc1cc(=O)[nH]c(-n2ncc(C(=O)N3CCc4ccccc4C3)c2Cc2ccccc2)n1 [Q-0358]	100 nM	22000 nM	–
Cc1c(C(=O)N2CCN(C)CC2)cnn1-c1nn2cccc2c(=O)[nH]1 [Q-0756]	4 nM	800 nM	–
O=C(c1cnn(-c2nn3cc(F)cc3c(=O)[nH]2)c1)N1CCC(C(F)(F)F)CC1 [Q-0616, 6-fluoro-2-(4-(4-(trifluoromethyl)piperidine-1-carbonyl)-1H-pyrazol-1-yl)pyrrolo[1,2-f][1,2,4]triazin-4(3H)-one]	2 nM	100 nM	–
Cc1cc(=O)[nH]c(-n2ncc(C(=O)N3CCCC(C(F)(F)F)C3)c2C)n1 (stereo not drawn) [Q-0368]	10 nM	2900 nM	–
O=C(c1ccnc(-c2nc3ccsc3c(=O)[nH]2)c1)N1CCC(c2nc3ccccc3s2)CC1 [Q-0548]	20 nM	2100 nM	–
O=C(c1ccc(-c2nc3c(c(=O)[nH]2)CCC3)s1)N1CCC(C(F)(F)F)CC1 [Q-0609, 2-(5-(4-(trifluoromethyl)piperidine-1-carbonyl)thiophen-2-yl)-6,7-dihydro-3H-cyclopenta[d]pyrimidin-4(5H)-one]	1 nM	84 nM	–
Cc1c(C(=O)N2CCC(S(=O)(=O)c3ccc(F)c(F)c3)CC2)cnn1-c1nc2ccsc2c(=O)[nH]1 [Q-0597]	3 nM	53 nM	–
Cc1c(C(=O)O)nnn1-c1nn2cccc2c(=O)[nH]1 [Q-0779]	20 nM	10000 nM	–
